Laboratory results published in PMC6863598, “Binding of Monovalent and Bivalent Ligands by Transthyretin Causes Different Short- and Long-Distance Conformational Changes” (Journal of Medicinal Chemistry, 2019).

Columns and labels:
TTR HBP = biological target: T1, TTR HBP (Homo sapiens, UniProt P02766); assay: NMR observation of ligand binding to the recombinant TTR halogen binding pocket; settings: DSS added for reference purposes, Figure S4
T1 construct: hexahistidine (TEV-cleavable) (cleaved yes); made in house; host or cells: E. coli BL21 Star (DE3), peTM11 plasmid
Method: NMR spectra were acquired at 310 K with a Bruker AVANCE 700 and 800 MHz NMR spectrometer on a U-^2H, ^13C, ^15N-labeled recombinant TTR samples at concentrations of 50–90 μM in PBS buffer at pH 7.0 and 7.4 in a mixture H2O/D2O 90/10%.
The addition of 4,4-dimethyl-4-silapentane-1-sulfonic acid (DSS) for reference purposes led to the observation that DSS binds to the TTR HBP (see Figure S4).

TTR [1] = tested on: TTR; set-up: method as in PMID 28298647; settings: cited from earlier work
TTR [2] = settings: simultaneous occupancy of the two binding sites; cited from earlier work
[3] = biological target: TTR (human wild type TTR isolated from serum) (Homo sapiens, UniProt P02766); assay: Surface plasmon resonance (Biacore T200) of tafamidis binding to immobilised biotinylated TTR; settings: for k2 (off-rate, first binding site) / k4 (off-rate, second binding site): dissociation data fitted to a double exponential
Method: Data were fitted to the model described by Scheme 1. The measured fractional response is then given by {[AB + (2ABB)]/Ai} where Ai is the notional concentration of TTR on the surface. Rate parameters were determined from the global fitting of the association data to the binding equilibria as defined by Scheme 1. […]
Surface Plasm on Resonance. Human wild type TTR isolated from serum (Scipac) was biotinylated according to the method of Alhamadsheh et al . 3 using EZ -link sulfo NHS -LC biotin (Thermoscientific) and immobilised in […]
phosphate buffered saline (PBS), 0.05% Tween20 to achieve 3000-4000 response units of biotinylated TTR bound to the SA-chip surface following the manufacturer’s instructions. To block unoccupied sites, biocytin (50 µM) was flowed across the chip (at a flow rate of 50 µl/min, for 1 min). Finally, the chip was washed with Hepes Buffer Saline, pH 7. 4 (+ 0. 05 % Tween20) running buffer until the SPR signal reached a stable background level.
For all procedures, the running buffer was used at a flow rate of […]. The immobilised TTR surface was […]
30 µl/min) and then running buffer alone to monitor the dissociation phase. Between injections sufficient time

[4] = SPR, ± standard deviation, listed as Tafamidis

**Q.** For C[Si](C)(C)CCCS(=O)(=O)O [DSS, 4,4-dimethyl-4-silapentane-1-sulfonic acid], which “binding to the TTR HBP” value (TTR HBP) is on record?
**A.** binds

**Q.** Which “protection against the proteolytic cleavage of the peptide bond 48–49” value (TTR [1]) does the source give for O=C(O)c1ccccc1Nc1cc(Cl)c(OCCCCCCCOc2c(Cl)cc(Nc3ccccc3C(=O)O)cc2Cl)c(Cl)c1 [mds84] here?
**A.** highest protection

**Q.** What about the “nature of binding by TTR” value (TTR [2]) of the same molecule?
**A.** pseudo-irreversible

**Q.** With O=C(O)c1ccc2nc(-c3cc(Cl)cc(Cl)c3)oc2c1 [tafamidis] as the molecule, how does the “k3 (on-rate, second binding site)” value ([3]; SPR global fit, Scheme 1, ± standard deviation) read?
**A.** (3.5 ± 1.0) × 10^6 M^–1 s^–1

**Q.** What about the “k1 (on-rate, first binding site)” value ([3]; SPR global fit, Scheme 1, ± standard deviation, three independent experiments) of the same molecule?
**A.** (4.5 ± 2.2) × 10^6 M^–1 s^–1

**Q.** What about the “difference in the observed affinities at the two sites” value ([3]; SPR, Kd2 vs Kd1) of the same molecule?
**A.** 7 fold

**Q.** What about the “k2 (off-rate, first binding site)” value ([3]; SPR, ± standard deviation) of the same molecule?
**A.** 0.008 s^–1

**Q.** What about the “k4 (off-rate, second binding site)” value ([3]; SPR, ± standard deviation) of the same molecule?
**A.** 0.06 s^–1

**Q.** And the “k2 (off-rate, first binding site)” value [3, 4]?
**A.** (0.008 ± 0.001) s^–1

**Q.** What about the “k4 (off-rate, second binding site)” value [3, 4] of the same molecule?
**A.** (0.060 ± 0.006) s^–1

**Q.** And the “k2 (off-rate measured by SPR)” value ([3]; first site, Figure 7 legend)?
**A.** 0.008 Hz

**Q.** What about the “k4 (off-rate measured by SPR)” value ([3]; second site, Figure 7 legend) of the same molecule?
**A.** 0.06 Hz
